The test system of assay [1] is human breast cancer cell line MCF-7. Kind of assay: Oncotest propidium iodide monolayer cell proliferation assay, MCF-7. Format: cell-based. The following applies: Homo sapiens, MCF7, 96 h, mean absolute IC50, 96 h treatment, propidium iodide endpoint, triplicate; read-out: MCF-7 IC50. As to the method: (§1) The anticancer activity of compounds (8a-q) was evaluated using the Oncotest monolayer assay in the human prostate cancer cell line 22Rv1 and the human breast cancer cell line MCF-7, as an outsourced service. […] Antitumour activity was assessed after four days of treatment with the compounds using a propidium iodide based monolayer assay. Potency is expressed as absolute IC50 values, calculated by non-linear regression analysis following testing in triplicate. The seventeen inhibitors were tested at 10 concentrations in half-log increments up to 100 μM in triplicate.
(§2) A modified propidium iodide (PI) based monolayer assay was used to assess the anti-cancer activity of the compounds. Briefly, cells were harvested from exponential phase cultures, counted and plated in 96-well flat-bottom microtiter plates at a cell density of 8.000–12.000 cells/well. After a 24 h recovery period to allow the cells to resume exponential growth, 10 μl of culture medium (six control wells/plate) or culture medium with test compound were added. The compounds were applied in half-log increments at 10 concentrations in triplicate. After a total treatment period of 96 h, cells were washed with 200 μl PBS to remove dead cells and debris. Then, 200 μl of a solution containing 7 μg/mL propidium iodide (PI) was added. After an incubation period of 1–2 h at room temperature, fluorescence (FU) was measured using the EnSpire Multimode Plate Reader (excitation λ = 530 nm, emission λ = 620 nm) to quantify the amount of attached viable cells. IC50 values were calculated by 4-parameter non-linear curve fit using Oncotest Warehouse Software. For calculation of mean IC50 values the geometric mean was used.

The test system of assay [2] is MCF-7 and 22Rv1. The assay can be described thus: Oncotest monolayer assay, results stated over both cell lines. The following applies: for IC50: Homo sapiens; for antiproliferative activity (in words): MCF-7 and 22Rv1. Format: cell-based, human. As for the experimental part:
as §1, §2

Assay [3] has as its system human prostate cancer cell line 22Rv1. Kind of assay: Oncotest propidium iodide monolayer cell proliferation assay, 22Rv1. The following applies: Homo sapiens, 22Rv1, 96 h, mean absolute IC50, 96 h treatment, propidium iodide endpoint, triplicate. Format: cell-based. As to the method:
as §1, §2

The mark [4] stands for this setting: geometric mean over MCF-7 and 22Rv1, read-out: Mean IC50 values.

“Also recorded” adds a separate entry of the source. Read-outs that look alike come from different tables or passages of the source. A value given as a limit tells only on which side of the number the result lay.

A word on the IC50: it is the concentration that gives 50% inhibition. As to `O=C1OC[C@]2(O)Nc3c(c4cccnc4c4ncccc34)[C@@H](c3cc(C(F)(F)F)cc(C(F)(F)F)c3)[C@@H]12` (mixture of isomers) [Compound 8j, (9aS, 12aR, 13R) and (9aR, 12aS, 13S) 13-(3,5-bis(trifluoromethyl)phenyl)-9a-hydroxy-9a,10,12a,13-tetrahydrofuro[3,4-b]pyrido[3,2-f][1,10] phenanthrolin-12(9H)-one], the IC50 in assay [1] is 643 nM; in assay [2] (setting [4]), less than 500 nM; in assay [3], 380 nM. Further, in assay [2], the “antiproliferative activity (in words)” value is “submicromolar activity”.

For `O=C1OC[C@]2(O)Nc3c(c4cccnc4c4ncccc34)[C@@H](c3ccc(S(F)(F)(F)(F)F)cc3)[C@@H]12` (mixture of isomers) [Compound 8n, (9aS, 12aR, 13R) and (9aR, 12aS, 13S) 9a-hydroxy-13-(4-(pentafluorosulfanyl)phenyl)-9a,10,12a,13-tetrahydrofuro[3,4-b]pyrido[3,2-f][1,10] phenanthrolin-12(9H)-one], the IC50 in assay [1] was 857 nM; in assay [2] (setting [4]), 500 to 1000 nM; in assay [3] it was 590 nM. Moreover, the “antiproliferative activity (in words)” value in assay [2] is listed as “submicromolar activity”.

In the case of `CCOc1ccc([C@@H]2c3c(c4cccnc4c4ncccc34)N[C@@]3(O)COC(=O)[C@H]23)cc1C(F)(F)F` (mixture of isomers) [Compound 8k, (9aS, 12aR, 13R) and (9aR, 12aS, 13S) 13-(4-ethoxy-3-(trifluoromethyl)phenyl)-9a-hydroxy-9a,10,12a,13-tetrahydrofuro[3,4-b]pyrido[3,2-f][1,10] phenanthrolin-12(9H)-one], the values for the half-maximal inhibitory concentration (IC50) in assay [1], in assay [2] (setting [4]) and in assay [3] were 355 nM, less than 500 nM and 295 nM, respectively. Besides, in assay [2], the “antiproliferative activity (in words)” value is recorded as “more active than etoposide in both cell lines”.

As for `Cc1cc(OC(F)(F)F)cc([C@@H]2c3c(c4cccnc4c4ncccc34)N[C@@]3(O)COC(=O)[C@H]23)c1` (mixture of isomers) [Compound 8h, (9aS, 12aR, 13R) and (9aR, 12aS, 13S) 9a-hydroxy-13-(3-methyl-5-trifluoromethoxyphenyl)-9a,10,12a,13-tetrahydrofuro[3,4-b]pyrido[3,2-f][1,10] phenanthrolin-12(9H)-one], the IC50 in assay [1] was 475 nM; in assay [2] (setting [4]) it was less than 500 nM; in assay [3], 242 nM. For the same compound, the “antiproliferative activity (in words)” value in assay [2] is “more active than etoposide in both cell lines”.

For `COc1cc([C@@H]2c3cc4c(cc3[C@@H](O[C@@H]3O[C@@H]5CO[C@@H](c6cccs6)O[C@H]5[C@H](O)[C@H]3O)[C@H]3COC(=O)[C@H]23)OCO4)cc(OC)c1O` [Teniposide, reference compound], the IC50 in assay [1] is 125 nM; in assay [2] (range or bound over both cell lines MCF-7 and 22Rv1, read-out: IC50 values in the range), 80 to 130 nM; in assay [3], 82 nM.

Take `O=C1OC[C@]2(O)Nc3c(c4cccnc4c4ncccc34)[C@@H](c3cccc(OC(F)(F)F)c3)[C@@H]12` (mixture of isomers) [Compound 8c, (9aS, 12aR, 13R) and (9aR, 12aS, 13S) 9a-hydroxy-13-(3-(trifluoromethoxy)phenyl)-9a,10,12a,13-tetrahydrofuro[3,4-b]pyrido[3,2-f][1,10]phenanthrolin-12(9H)-one]: the figures for the IC50 in assay [1] and in assay [3] were 466 nM and 257 nM, respectively.

On to `O=C1OC[C@]2(O)Nc3c(c4cccnc4c4ncccc34)[C@@H](c3ccc(SC(F)(F)F)cc3)[C@@H]12` (mixture of isomers) [Compound 8i, (9aS, 12aR, 13R) and (9aR, 12aS, 13S) 9a-hydroxy-13-(4-((trifluoromethyl)thio)phenyl)-9a,10,12a,13-tetrahydrofuro[3,4-b]pyrido [3,2-f][1,10]phenanthrolin-12(9H)-one], for which the IC50 is 2300 nM in assay [1], less than 10000 nM in assay [2] (setting [4]) and 894 nM in assay [3].

As to `O=C1OC[C@]2(O)Nc3c(c4cccnc4c4ncccc34)[C@@H](c3ccc4c(c3)OC(F)(F)O4)[C@@H]12` (mixture of isomers) [Compound 8q, (9aS, 12aR, 13R) and (9aR, 12aS, 13S) 13-((3,4-difluoromethylenedioxy)phenyl)-9a-hydroxy-9a,10,12a,13-tetrahydrofuro[3,4-b]pyrido[3,2-f][1,10]phenanthrolin-12(9H)-one], the IC50 in assay [1] is 910 nM; in assay [2] (setting [4]), 500 to 1000 nM; in assay [3] it was 520 nM. Also, the “antiproliferative activity (in words)” value in assay [2] is listed as “submicromolar activity”.

As to `COc1cc(OC(F)(F)F)ccc1[C@@H]1c2c(c3cccnc3c3ncccc23)N[C@@]2(O)COC(=O)[C@@H]12` (mixture of isomers) [Compound 8o, (9aS, 12aS, 13S) and (9aR, 12aR, 13R) 9a-hydroxy-13-(2-methoxy-4-(trifluoromethoxy)phenyl)-9a,10,12a,13-tetrahydrofuro[3,4-b]pyrido[3,2-f][1,10]phenanthrolin-12(9H)-one], the IC50 in assay [1] is 396 nM; in assay [2] (setting [4]), less than 500 nM; in assay [3], 322 nM. Moreover, the “antiproliferative activity (in words)” value in assay [2] is recorded as “more active than etoposide in both cell lines”.

As to `CSc1ccc([C@@H]2c3c(c4cccnc4c4ncccc34)N[C@@]3(O)COC(=O)[C@H]23)cc1` (mixture of isomers) [Compound 8a, (9aS, 12aR, 13R) and (9aR, 12aS, 13S) 9a-hydroxy-13-(4-(methylthio)phenyl)-9a,10,12a,13-tetrahydrofuro[3,4-b]pyrido[3,2-f][1,10]phenanthrolin-12(9H)-one], the IC50 in assay [1] is 648 nM; in assay [2] (setting [4]) it was 500 to 1000 nM; in assay [3] it was 855 nM.

On to `O=C1OC[C@]2(O)Nc3c(c4cccnc4c4ncccc34)[C@@H](c3cccc(C(F)(F)F)c3)[C@@H]12` (mixture of isomers) [Compound 8f, (9aS, 12aR, 13R) and (9aR, 12aS, 13S) 9a-hydroxy-13-(3-(trifluoromethyl)phenyl)-9a,10,12a,13-tetrahydrofuro[3,4-b]pyrido[3,2-f][1,10]phenanthrolin-12(9H)-one], for which the IC50 in assay [1] is 825 nM; in assay [2] (setting [4]), 500 to 1000 nM; in assay [3], 510 nM.

Take `Cc1ccc(OC(F)(F)F)cc1[C@@H]1c2c(c3cccnc3c3ncccc23)N[C@@]2(O)COC(=O)[C@H]12` (mixture of isomers) [Compound 8m, (9aS, 12aR, 13R) and (9aR, 12aS, 13S) 9a-hydroxy-13-(2-methyl-5-(trifluoromethoxy)phenyl)-9a,10,12a,13-tetrahydrofuro[3,4-b]pyrido[3,2-f][1,10]phenanthrolin-12(9H)-one]: the IC50 in assay [1] was 3310 nM; in assay [2] (setting [4]) it was less than 10000 nM; in assay [3], 2840 nM.

Consider `O=C1OC[C@]2(O)Nc3c(c4cccnc4c4ncccc34)[C@@H](c3ccc(OC(F)F)cc3)[C@@H]12` (mixture of isomers) [Compound 8l, (9aS, 12aR, 13R) and (9aR, 12aS, 13S) 13-(4-(difluoromethoxy)phenyl)-9a-hydroxy-9a,10,12a,13-tetrahydrofuro[3,4-b]pyrido[3,2-f][1,10]phenanthrolin-12(9H)-one], for which the IC50 in assay [1] is 901 nM; in assay [2] (setting [4]), 500 to 1000 nM; in assay [3] it was 719 nM.

Take `O=C1OC[C@]2(O)Nc3c(c4cccnc4c4ncccc34)[C@@H](c3cccc(S(F)(F)(F)(F)F)c3)[C@@H]12` (mixture of isomers) [Compound 8g, (9aS, 12aR, 13R) and (9aR, 12aS, 13S) 9a-hydroxy-13-(3-(pentafluorosulfanyl)phenyl)-9a,10,12a,13-tetrahydrofuro[3,4-b]pyrido[3,2-f][1,10]phenanthrolin-12(9H)-one]: the IC50 was 589 nM in assay [1], less than 500 nM in assay [2] (setting [4]) and 311 nM in assay [3]. For the same compound, in assay [2], the “antiproliferative activity (in words)” value is on record as “more active than etoposide in both cell lines; also recorded: submicromolar activity”.

As to `O=C1OC[C@]2(O)Nc3c(c4cccnc4c4ncccc34)[C@@H](c3ccc(OC(F)(F)F)cc3)[C@@H]12` (mixture of isomers) [Compound 8d, (9aS, 12aR, 13R) and (9aR, 12aS, 13S) 9a-hydroxy-13-(4-(trifluoromethoxy)phenyl)-9a,10,12a,13-tetrahydrofuro[3,4-b]pyrido[3,2-f][1,10]phenanthrolin-12(9H)-one], the results for the IC50 in assay [1] and in assay [3] were 424 nM and 239 nM, respectively.
